Assay [1] addresses 72 kDa type IV collagenase (Homo sapiens, UniProt P08253).
A further assay concerns the target T1, Interstitial collagenase (Homo sapiens, UniProt P03956).
T1 sequence (P03956 whole entry): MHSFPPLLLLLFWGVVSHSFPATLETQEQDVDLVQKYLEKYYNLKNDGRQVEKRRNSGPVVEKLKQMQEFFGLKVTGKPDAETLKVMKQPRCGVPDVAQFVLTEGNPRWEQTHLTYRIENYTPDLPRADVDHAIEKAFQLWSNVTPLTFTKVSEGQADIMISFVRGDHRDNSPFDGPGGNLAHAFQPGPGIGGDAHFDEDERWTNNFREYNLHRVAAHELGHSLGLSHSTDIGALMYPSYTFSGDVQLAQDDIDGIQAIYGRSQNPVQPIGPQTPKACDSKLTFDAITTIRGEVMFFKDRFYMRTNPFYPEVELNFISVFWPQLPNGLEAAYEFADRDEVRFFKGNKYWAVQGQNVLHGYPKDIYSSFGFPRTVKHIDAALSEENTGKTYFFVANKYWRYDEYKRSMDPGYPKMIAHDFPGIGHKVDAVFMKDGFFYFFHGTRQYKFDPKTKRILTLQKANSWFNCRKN

Assay [2] addresses T2, Disintegrin and metalloproteinase domain-containing protein 17 (Homo sapiens, UniProt P78536).
Assay [3] deals with T2, Disintegrin and metalloproteinase domain-containing protein 17. The format is functional, cell-based, THP-1.

The IC50 is the concentration that inhibits the measured activity by half.

T2 sequence (P78536 whole entry, the tested form may be a part): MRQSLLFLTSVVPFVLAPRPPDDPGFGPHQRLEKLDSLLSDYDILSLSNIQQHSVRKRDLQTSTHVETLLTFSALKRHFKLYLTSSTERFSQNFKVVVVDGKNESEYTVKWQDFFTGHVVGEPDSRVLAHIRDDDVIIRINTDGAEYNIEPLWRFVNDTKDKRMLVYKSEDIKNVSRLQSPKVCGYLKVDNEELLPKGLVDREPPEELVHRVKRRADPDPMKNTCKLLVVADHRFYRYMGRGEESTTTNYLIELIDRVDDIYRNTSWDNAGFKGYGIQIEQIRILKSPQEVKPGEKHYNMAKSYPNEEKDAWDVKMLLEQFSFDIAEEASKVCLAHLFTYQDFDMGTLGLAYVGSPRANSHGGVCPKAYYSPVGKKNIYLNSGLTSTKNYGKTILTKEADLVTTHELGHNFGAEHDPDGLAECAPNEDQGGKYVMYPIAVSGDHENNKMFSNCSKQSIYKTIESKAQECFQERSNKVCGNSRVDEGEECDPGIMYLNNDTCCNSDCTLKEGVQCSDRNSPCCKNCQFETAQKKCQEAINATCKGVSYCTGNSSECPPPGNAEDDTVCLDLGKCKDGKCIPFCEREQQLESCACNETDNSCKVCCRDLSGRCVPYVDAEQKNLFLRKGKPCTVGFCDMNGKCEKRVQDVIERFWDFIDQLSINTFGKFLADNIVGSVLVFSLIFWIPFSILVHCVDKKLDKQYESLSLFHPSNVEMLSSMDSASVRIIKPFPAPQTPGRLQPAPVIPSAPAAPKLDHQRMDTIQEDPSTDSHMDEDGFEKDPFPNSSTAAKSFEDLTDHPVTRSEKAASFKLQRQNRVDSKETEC
72 kDa type IV collagenase, sequence (P08253 whole entry): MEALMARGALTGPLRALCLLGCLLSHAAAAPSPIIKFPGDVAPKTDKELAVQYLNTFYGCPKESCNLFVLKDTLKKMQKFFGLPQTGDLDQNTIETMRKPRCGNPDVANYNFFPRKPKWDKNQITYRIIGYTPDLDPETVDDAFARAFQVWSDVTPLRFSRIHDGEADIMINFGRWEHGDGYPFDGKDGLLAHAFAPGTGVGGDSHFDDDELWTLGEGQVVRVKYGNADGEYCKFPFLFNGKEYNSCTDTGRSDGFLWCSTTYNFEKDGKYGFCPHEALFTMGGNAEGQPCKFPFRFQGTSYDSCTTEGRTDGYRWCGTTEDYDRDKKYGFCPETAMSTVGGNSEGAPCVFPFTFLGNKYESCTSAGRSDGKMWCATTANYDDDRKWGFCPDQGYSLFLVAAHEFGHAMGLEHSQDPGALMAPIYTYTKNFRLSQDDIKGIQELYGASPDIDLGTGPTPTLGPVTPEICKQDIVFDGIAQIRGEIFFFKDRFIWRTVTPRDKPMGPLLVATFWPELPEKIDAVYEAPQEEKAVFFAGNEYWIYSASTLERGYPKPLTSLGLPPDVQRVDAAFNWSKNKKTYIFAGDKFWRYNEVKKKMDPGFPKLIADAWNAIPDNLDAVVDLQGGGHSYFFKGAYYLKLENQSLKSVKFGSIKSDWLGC

On to `COc1cc(Oc2ccc(S(=O)(=O)CC(C)C(=O)NO)cc2)cc(OC)c1OC` (stereo not drawn), for which the IC50 in assay [1] is 430 nM; against Interstitial collagenase, over 10000 nM.
For `O=C(c1ccccc1)[C@@H]1Cc2ccc(cc2)OCCCC[C@H](C(=O)NO)[C@@H](CCCc2cc(Br)cc(Br)c2)C(=O)N1`, the IC50 in assay [2] is 87 nM; in assay [3], over 5000 nM.
For `CNC(=O)[C@@H]1Cc2ccc(cc2)OCCCC[C@H](C(=O)NO)[C@@H](CCCc2cc(C(F)(F)F)cc(C(F)(F)F)c2)C(=O)N1`, the IC50 in assay [2] was 33 nM; in assay [3], 300 nM; against Interstitial collagenase it was over 10000 nM.
For `COCCOc1cc(CCC[C@H]2C(=O)N[C@H](C(=O)c3ccccc3)Cc3ccc(cc3)OCCCC[C@@H]2C(=O)NO)cc(OC)c1` the same measures were 74 nM, 15000 nM and over 10000 nM.
With `CNC(=O)[C@@H]1Cc2ccc(cc2)OCCCC[C@H](C(=O)NO)[C@@H](CCCc2ccc(Cl)cc2)C(=O)N1`, the values for the IC50 in assay [2] and in assay [3] were 3.4 nM and 440 nM, respectively.
Turning to `CC1(C)SCCN(S(=O)(=O)c2ccc(Oc3cccnc3)cc2)[C@H]1C(=O)NO`, half-maximal inhibition at Interstitial collagenase (IC50) was put at 5.7 nM.
Regarding `COc1cc(Oc2ccc(S(=O)(=O)N3CCSC(C)(C)[C@@H]3C(=O)NO)cc2)cc(OC)c1OC`, the results for the half-maximal inhibitory concentration (IC50) (in assay [1]; at Interstitial collagenase) were 21 nM and 26 nM, respectively.
Regarding `COc1cc(Oc2ccc(SCC(C)C(=O)NO)cc2)cc(OC)c1OC` (stereo not drawn), the IC50 is 180 nM in assay [2], 3400 nM in assay [1] and over 10000 nM against Interstitial collagenase.
On Interstitial collagenase, `COc1cc(CCC[C@H]2C(=O)N[C@H](C(=O)c3ccccc3)Cc3ccc(cc3)OCCCC[C@@H]2C(=O)NO)cc(OC)c1OC` showed an IC50 of over 10000 nM.
With `CNC(=O)[C@@H]1Cc2ccc(cc2)OCCCC[C@H](C(=O)NO)[C@@H](CCCc2cc(OC)ccc2OC)C(=O)N1`, the half-inhibitory concentration (IC50) in assay [2] came to 6.8 nM; in assay [3] it was 4100 nM.
Consider `CNC(=O)[C@@H]1Cc2ccc(cc2)OCCCC[C@H](C(=O)NO)[C@@H](CCCc2cc(C)cc(C(C)C)c2)C(=O)N1`, for which the IC50 at Interstitial collagenase is over 1000 nM.
At Interstitial collagenase, `COc1cc(CCC[C@H]2C(=O)N[C@H](C(=O)c3ccccc3)Cc3ccc(cc3)OCCCC[C@@H]2C(=O)NO)cc(OC)c1` registered a half-maximal inhibitory concentration (IC50) of over 10000 nM.

The record behind these values is ChEMBL document CHEMBL1133837, “Discovery of selective hydroxamic acid inhibitors of tumor necrosis factor-alpha converting enzyme” (Bioorg Med Chem Lett, 2001).
